# Columns and labels:
# Assay type in all cases: in vivo, pig
# [1] = Effect of abscisic acid on reducing productivity decrease due to heat stress in young pigs; conditions: for Feed Conversion Rate (Feed Intake/Body Weight Gain, Average value) / Feed Intake (Average value) / Body Weight Gain (Average value): high temperature (30.6° C.), young pigs; for Body Weight Gain (Average value): age 35 to 70 days
# Protocol: Eighty four (84) of crossbred young pigs (LWD) at an age of 28 days were employed in this test. Body weight of the each young pigs was measured and seven animals were assigned to one section considering the average body weight across the sections was equal, and the three sections (replicates) were assigned to a total four test groups. The test period was from 28 to 70 day-old, and S-abscisic acid was used as a test substance. The S-ABA was added to the feed at the concentrations shown in the Table 6, and the feed containing S-ABA was fed daily to the pigs at the age of 28 to 70 days. The high temperature environment was carried out from the age of 36 to 70 days of the pigs.
# The following four groups were set. Three sections (repetitions) per one group was set, which were assigned to each test group as indicated in the below Table.
# (§1) The pigs were raised at the optimal temperature from the age of 28 to 35 day-old. After the age of 36 days the pigs of the Test group 1 were housed at an optimal temperature and the pigs of the Test groups 2 to 4 were exposed to a particular high temperature by air conditioner. The raising temperature were measured with a thermo-hygrometer or a data logger which was installed near the center of the raising room, and then recorded. The average room temperature of the optimal temperature group was 26.1° C., and the average room temperature of the […] temperature group was 30.6° C.
# (§2) As a feed, similarly to the test example 1, an early feed, middle feed or late feed of MAMACOLO which was manufactured by FEED ONE CO., LTD. (2-6, Higashifukasiba Kamisu-shi, Ibaraki) was given by ad libitum feeding. A drinking water was freely ingested by a waterer with a picker. The early feed was given until the age of 35 days of the pig, the middle feed was given at the age of from 36 days to 42 days, and the late feed was given at the age of post 43 days.
# • (i) Clinical symptoms: observed daily. • (ii) Body weight: Body weight was measured for each individual at the age of 28, 35 and 70 days old, and the average weight gain per a section from the age of 35 to 70 days during the test period was calculated. • (iii) Feed intake: Feed intake was measured daily by each section, and feed intake for one animal per a week was calculated. Also, feed conversion rate (feed intake/body weight gain) was calculated from “Average feed intake” and “Average body weight gain per section” during the test period.
# [2] = Effect of abscisic acid on reducing productivity decrease due to cold stress in young pigs; conditions: for Feed Conversion Rate (Feed Intake/Body Weight Gain, Average value) / Feed Intake (Average value) / Body Weight Gain (Average value): low temperature (20.4° C.), young pigs; for Body Weight Gain (Average value): age 35 to 70 days
# Protocol: Eighty four (84) crossbred young pigs (LWD) at an age of 28 days were employed in this test. Body weight of the each young pigs was measured and seven animals were assigned to one section considering the average body weight across the sections was equal, and the three sections (replicates) were assigned to a total four test groups. The test period was from 28 to 70 day-old, and S-abscisic acid was (hereinafter, referred to as “S-ABA”) used as a test substance. The S-ABA was added to the feed at the concentrations shown in Table 1, and the feed containing S-ABA was fed daily to the pigs at the age of 28 to 70 days. The low temperature environment was carried out from the age of 36 to 70 days of the pigs.
# The following four groups were set.
# as §1, with “days,” for “days”, “low” for “high”, “20.4°” for “30.6°”
# as §2, with “feed,” for “feed, similarly to the test example 1,”
# • (i) Clinical symptoms: observed daily. • (ii) Body weight: Body weight was measured for each individual at the age of 28, 35 and 70 days old, and the average weight gain per a section from the age of 35 to 70 days during the test period was calculated. • (iii) Feed intake: Feed intake was measured daily for each section, and feed intake for one animal per a week was calculated. Also, feed conversion rate (feed intake/body weight gain) was calculated from “Average feed intake” and “Average body weight gain per section” during the test period.
# reduced glutathione = test: Effect of abscisic acid on increasing production of reduced glutathione in small intestine of gilts
# Source text: Twelve (12) of gilts at an age of 8 months were employed in this test. The S-ABA (particle size of 0.1 to 1 mm) in the amounts as shown in Table 11 was supplemented in the feed for about 40 days from the day of artificial insemination.
# • (i) Clinical symptoms: observed daily. • (ii) Sampling of intestinal tracts: The pig was dissected on the 40th day of pregnancy, and the small intestine was sampled.
# The measurement results of reduced glutathione in a small intestine after the administration for about 40 days are shown in Table 12. Using a commercially available glutathione measuring kit (manufactured by DOJINDO CHEMICALS Inc.; […]), the reduced glutathione contained in 1 g of small intestine tissue was determined quantitatively.
smiles,measurement,setting,value
"CC1=CC(=O)CC(C)(C)[C@@]1(O)/C=C/C(C)=C\C(=O)O [ABA, (S)-(+)-abscisic acid]",Clinical symptoms,"[1]; 0.1, 0.5 or 1 ppm in feed, age 28 to 70 days, observed daily, high temperature",No abnormality was seen
same,"Feed Conversion Rate (Feed Intake/Body Weight Gain, Average value)",[1]; 0.1 ppm ABA in feed,4.54
same,Feed Intake (Average value),[1]; 0.1 ppm ABA in feed,30.7 kg
same,Body Weight Gain (Average value),[1]; 0.1 ppm ABA in feed,18.04 kg
same,"Feed Conversion Rate (Feed Intake/Body Weight Gain, Average value)",[1]; 0.5 ppm ABA in feed,4.25
same,Feed Intake (Average value),[1]; 0.5 ppm ABA in feed,29.7 kg
same,Body Weight Gain (Average value),[1]; 0.5 ppm ABA in feed,18.25 kg
same,"Feed Conversion Rate (Feed Intake/Body Weight Gain, Average value)",[1]; 1.0 ppm ABA in feed,3.91
same,Feed Intake (Average value),[1]; 1.0 ppm ABA in feed,32.9 kg
same,Body Weight Gain (Average value),[1]; 1.0 ppm ABA in feed,19.02 kg
same,Clinical symptoms,"[2]; 0.1, 0.5 or 1 ppm in feed, age 28 to 70 days, observed daily, low temperature",No abnormality was seen
same,"Feed Conversion Rate (Feed Intake/Body Weight Gain, Average value)",[2]; 0.1 ppm ABA in feed,4.40
same,Feed Intake (Average value),[2]; 0.1 ppm ABA in feed,29.81 kg
same,Body Weight Gain (Average value),[2]; 0.1 ppm ABA in feed,16.99 kg
same,"Feed Conversion Rate (Feed Intake/Body Weight Gain, Average value)",[2]; 0.5 ppm ABA in feed,4.29
same,Feed Intake (Average value),[2]; 0.5 ppm ABA in feed,29.91 kg
same,Body Weight Gain (Average value),[2]; 0.5 ppm ABA in feed,16.40 kg
same,"Feed Conversion Rate (Feed Intake/Body Weight Gain, Average value)",[2]; 1.0 ppm ABA in feed,4.41
same,Feed Intake (Average value),[2]; 1.0 ppm ABA in feed,30.30 kg
same,Body Weight Gain (Average value),[2]; 1.0 ppm ABA in feed,17.00 kg
same,Reduced glutathione in small intestine tissue compared to the no dosing S-ABA group,reduced glutathione; 10 ppm S-ABA in feed for about 40 days,increased amount of reduced glutathione in small intestine tissue significantly
same,Reduced glutathione Amount,"reduced glutathione; 10 ppm S-ABA in feed for about 40 days from artificial insemination, small intestine tissue",0.234 μmol/g wet tissue
same,Clinical symptoms,"reduced glutathione; 10 ppm S-ABA in feed for about 40 days, observed daily",No abnormality was seen

# Source: patent publication US20230413860A1, “Abscisic Acid-Mixed Pig Feed” (Sumitomo Chemical Company, Limited, priority 2020, published 2023)
